Patent US11661437B2, “Steroid derivative regulators, method for preparing the same, and uses thereof” (priority 2018, dated 2023)

These compounds were tested on GABA-A receptor (assay: 35S-TBPS binding assay on rat cerebral cortex cell membrane). Conditions: 2 nM 35S-TBPS, GABA added, read-out: 35S-TBPS bindng test, IC50 on inhibiting the TBPS binding activity.
Set-up: species or system Sprague-Dawley rat
Experimental: 1.2.1 Extraction of Cerebral Cortex Cell Membrane:
1. The cerebral cortex of male Sprague-Dawley rat was isolated.
2. A pre-chilled 0.32 M sucrose solution (one tablet of protease inhibitor was added per 100 ml) was added to the cerebral cortex (the volume of sucrose solution was 10 times the volume of the cerebral cortex). The mixture was crushed with a 50 ml glass tissue homogenizer in batches and mixed well.
3. The mixture was centrifuged at 1500 g, 4° C. for 10 minutes, and the supernatant was collected.
4. The mixture was centrifuged at 20000 g, 4° C. for 30 minutes, and the supernatant was discarded.
5. The precipitate was resuspended with the pre-chilled phosphate buffer saline (PBS) (one tablet of protease inhibitor was added per 100 ml). An average of 4 ml of PBS was added per rat, and the mixture was mixed well with a glass tissue homogenizer.
6. The mixture was centrifuged at 10000 g, 4° C. for 10 minutes, and the supernatant was discarded.
7. Steps 5 and 6 were repeated three times.
8. Finally, the precipitate was resuspended with 4 volumes of PBS. The resulting solution was dispensed, frozen in liquid nitrogen, and stored at −80° C.
9. The protein concentration was measured by the bicinchoninic acid (BCA) method.
1.2.2 ^35S-TBPS Binding Assay
1. 230 μL of PBS was added to each well of a well plate with 1.1 ml volume.
2. 60 μL of the cerebral cortex cell membrane (5 μg/μL) solution was added to each well, and the mixture was mixed well.
3. The test compound (3 μL per well) was added, and the plate was incubated at 25° C. for 5 minutes. The DMSO concentration was 1%. The initial compound concentration was 1 NM, and a 3-fold dilution in gradient was carried out to obtain a total of 8 gradients and 2 replicates. 1% DMSO was used as a negative control, and 10 μM P026-2 was used as a positive control.
4. GABA was added at a final concentration of […], and incubated at 25° C. for 5 minutes. 1 mM GABA solution was formulated, and 1.5 μL of the solution was added to each well.
5. ^35S-TBPS was added at a final concentration of 2 nM. The concentration of isotope mother solution was 9.7 μM. After dilution with PBS for 100 times, 6 μL of the diluted isotope solution was added to each well.
6. The plate was incubated at 4° C. for 20 hours.
7. The FilterMate GF/C plate was pre-treated with 0.5% PEI, and incubated at 4° C. for 1 hour.
8. The FilterMate GF/C plate was washed with Universal Harvester twice, 50 ml PBS each time.
9. The reaction solution was transferred to the GF/C plate, and each well was washed 4 times with 900 μL PBS.
10. The washed GF/C plate was placed at 55° C. and dried for 10 minutes.
11. 40 μL of scintillation solution was added to each well, and the CPM value was read with TopCount.
1.2.3 Experimental Data Processing Method:
In the experiment, the CPM (counts per minute) value was read with TopCount. According to the readings of the High control (DMSO) and the Low control (10 μM of the positive compound) experimental groups, the % inhibition was calculated based on the following formula: % Inhibition=100×(CPMHigh control−CPMSample)/(CPMHigh control−CPMLow control)
The IC50 of the compound was calculated according to the following 4-parameter nonlinear logic formula: Y=Bottom+(Top−Bottom)/(1+10^((Log IC50−X)*Hill Slope)),
The effect of the compound of the present invention on the TBPS binding activity was determined by the above test, and the measured IC50 values are shown in Table 1.
Work on `C[C@@]1(O)CC[C@@]2(F)[C@H](CC[C@H]3[C@@H]4CC[C@H](C(=O)Cn5cc(C#N)c(C6CC6)n5)[C@@]4(C)CC[C@@H]32)C1` [Example 40, 3-Cyclopropyl-1-(2-((3R,5R,8S,9S,10R,13S,14S,17S)-10-fluoro-3-hydroxy-3,13-dimethylhexadecahydro-1H-cyclopenta[a]phenanthren-17-yl)-2-oxoethyl)-1H-pyrazole-4-carbonitrile] yielded an IC50 of 12 nM.
Compound `C[C@@]1(O)CC[C@@]2(F)[C@H](CC[C@H]3[C@@H]4CC[C@H](C(=O)CNc5cnoc5)[C@@]4(C)CC[C@@H]32)C1` [Example 45, 1-((3R,5R,8S,9S,10R,13S,14S,17S)-10-Fluoro-3-hydroxy-3,13-dimethylhexadecahydro-1H-cyclopenta[a]phenanthren-17-yl)-2-(isoxazol-4-ylamino)ethan-1-one] has an IC50 of 34.4 nM.
`COc1ccc2nn(CC(=O)[C@H]3CC[C@H]4[C@@H]5CC[C@@H]6C[C@](C)(O)CC[C@]6(F)[C@H]5CC[C@]34C)nc2c1` [Example 46, 1-((3R,5R,8S,9S,10R,13S,14S,17S)-10-Fluoro-3-hydroxy-3,13-dimethylhexadecahydro-1H-cyclopenta[a]phenanthren-17-yl)-2-(5-methoxy-2H-benzo[d][1,2,3]triazol-2-yl)ethan-1-one] was tested, and the IC50 was 5.6 nM.
`COc1ccc2nnn(CC(=O)[C@H]3CC[C@H]4[C@@H]5CC[C@@H]6C[C@](C)(O)CC[C@]6(F)[C@H]5CC[C@]34C)c2c1` [Example 47, 1-((3R,5R,8S,9S,10R,13S,14S,17S)-10-Fluoro-3-hydroxy-3,13-dimethylhexadecahydro-1H-cyclopenta[a]phenanthren-17-yl)-2-(6-methoxy-1H-benzo[d][1,2,3]triazol-1-yl)ethan-1-one] showed an IC50 of 7.3 nM.
`COc1ccc2c(c1)nnn2CC(=O)[C@H]1CC[C@H]2[C@@H]3CC[C@@H]4C[C@](C)(O)CC[C@]4(F)[C@H]3CC[C@]12C` [Example 48, 1-((3R,5R,8S,9S,10R,13S,14S,17S)-10-Fluoro-3-hydroxy-3,13-dimethylhexadecahydro-1H-cyclopenta[a]phenanthren-17-yl)-2-(5-methoxy-1H-benzo[d][1,2,3]triazol-1-yl)ethan-1-one] showed an IC50 of 7.3 nM.
`C[C@@]1(O)CC[C@@]2(F)[C@H](CC[C@H]3[C@@H]4CC[C@H](C(=O)COc5cncnc5)[C@@]4(C)CC[C@@H]32)C1` [Example 49, 1-((3R,5R,8S,9S,10R,13S,14S,17S)-10-Fluoro-3-hydroxy-3,13-dimethylhexadecahydro-1H-cyclopenta[a]phenanthren-17-yl)-2-(pyrimidin-5-yloxy)ethan-1-one] gave an IC50 of 48 nM.
`C[C@@]1(O)CC[C@@]2(F)[C@H](CC[C@H]3[C@@H]4CC[C@H](C(=O)Cn5cc(-c6ncco6)cn5)[C@@]4(C)CC[C@@H]32)C1` [Example 52, 1-((3R,5R,8S,9S,10R,13S,14S,17S)-10-Fluoro-3-hydroxy-3,13-dimethylhexadecahydro-1H-cyclopenta[a]phenanthren-17-yl)-2-(4-(oxazol-2-yl)-1H-pyrazol-1-yl)ethan-1-one] showed an IC50 of 23 nM.
Compound `CSc1cnn(CC(=O)[C@H]2CC[C@H]3[C@@H]4CC[C@@H]5C[C@](C)(O)CC[C@]5(F)[C@H]4CC[C@]23C)c1` [Example 55, 1-((3R,5R,8S,9S,10R,13S,14S,17S)-10-Fluoro-3-hydroxy-3,13-dimethylhexadecahydro-1H-cyclopenta[a]phenanthren-17-yl)-2-(4-(methylthio)-1H-pyrazol-1-yl)ethan-1-one] has an IC50 of 42.5 nM.
Work on `C[C@@]1(O)CC[C@@]2(F)[C@H](CC[C@H]3[C@@H]4CC[C@H](C(=O)Cn5cc([N+](=O)[O-])cn5)[C@@]4(C)CC[C@@H]32)C1` [Example 58, 1-((3R,5R,8S,9S,10R,13S,14S,17S)-10-Fluoro-3-hydroxy-3,13-dimethylhexadecahydro-1H-cyclopenta[a]phenanthren-17-yl)-2-(4-nitro-1H-pyrazol-1-yl)ethan-1-one] yielded an IC50 of 37.8 nM.
`CCOC(=O)c1cnn(CC(=O)[C@H]2CC[C@H]3[C@@H]4CC[C@@H]5C[C@](C)(O)CC[C@]5(F)[C@H]4CC[C@]23C)c1` [Example 59, Ethyl 1-(2-((3R,5R,8S,9S,10R,13S,14S,17S)-10-fluoro-3-hydroxy-3,13-dimethylhexadecahydro-1H-cyclopenta[a]phenanthren-17-yl)-2-oxoethyl)-1H-pyrazole-4-carboxylate] was tested, and the IC50 was 9.4 nM.
Work on `C[C@@]1(O)CC[C@@]2(F)[C@H](CC[C@H]3[C@@H]4CC[C@H](C(=O)Cn5cc(C(=O)N6CCC6)cn5)[C@@]4(C)CC[C@@H]32)C1` [Example 62, 2-(4-(Azetidine-1-carbonyl)-1H-pyrazol-1-yl)-1-((3R,5R,8S,9S,10R,13S,14S,17S)-10-fluoro-3-hydroxy-3,13-dimethylhexadecahydro-1H-cyclopenta[a]phenanthren-17-yl)ethan-1-one] yielded an IC50 of 7.1 nM.
Compound `C[C@@]1(O)CC[C@]2(F)C3CC[C@]4(C)[C@@H](C(=O)Cn5ncc(C6CC6)n5)CC[C@H]4[C@@H]3CC[C@@H]2C1` (stereo partly drawn) [Example 63, 2-(4-Cyclopropyl-2H-1,2,3-triazol-2-yl)-1-((3R,5R,8S,10R,13S,14S,17S)-10-fluoro-3-hydroxy-3,13-dimethylhexadecahydro-1H-cyclopenta[a]phenanthren-17-yl)ethan-1-one] has an IC50 of 25.8 nM.
`C[C@@]1(O)CC[C@]2(F)C3CC[C@]4(C)[C@@H](C(=O)Cn5cc(C6CC6)nn5)CC[C@H]4[C@@H]3CC[C@@H]2C1` (stereo partly drawn) [Example 64, 2-(4-Cyclopropyl-1H-1,2,3-triazol-1-yl)-1-((3R,5R,8S,10R,13S,14S,17S)-10-fluoro-3-hydroxy-3,13-dimethylhexadecahydro-1H-cyclopenta[a]phenanthren-17-yl)ethan-1-one] gave an IC50 of 24.8 nM.
`C[C@]1(O)CC[C@@]2(F)[C@H](CC[C@H]3[C@@H]4CC[C@H](C(=O)CNS(=O)(=O)c5ccccc5)[C@@]4(C)CC[C@@H]32)C1` [Example 71, N-(2-((3S,5R,8S,9S,10R,13S,14S,17S)-10-Fluoro-3-hydroxy-3,13-dimethylhexadecahydro-1H-cyclopenta[a]phenanthren-17-yl)-2-oxoethyl)benzenesulfonamide] was tested, and the IC50 was 49 nM.
